Assay results from patent US10485235B2, “Aryloxypyrimidinyl ethers as herbicides” (FMC Corporation, priority 2015, dated 2019).

Experiments:
Type in all cases: in vivo
[1] = system: barnyardgrass (Echinochloa crus-galli); assay: Test A preemergence, barnyardgrass; details: Preemergence, 0 to 100 scale (0 no effect, 100 complete control)
Method in brief: (§1)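 Ratings run 0–100, where 100 is complete control, and were scored visually against untreated plants about 10 days after treatment under greenhouse conditions. Formulated chemicals were sprayed either onto the soil surface after seeding (preemergence) or onto one- to two-leaf seedlings 2–10 cm high (postemergence).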

kochia (Kochia scoparia) [2] = assay: Test A preemergence, kochia; details: Preemergence, 0 to 100 scale (0 no effect, 100 complete control)
Method in brief: as §1

[3] = system: ragweed (common ragweed, Ambrosia elatior); assay: Test A preemergence, ragweed; details: Preemergence, 0 to 100 scale (0 no effect, 100 complete control)
Method in brief: as §1

[4] = system: ryegrass, Italian (Italian ryegrass, Lolium multiflorum); assay: Test A preemergence, Italian ryegrass; details: Preemergence, 0 to 100 scale (0 no effect, 100 complete control)
Method in brief: as §1

[5] = system: foxtail, giant (giant foxtail, Setaria faberii); assay: Test A preemergence, giant foxtail; details: Preemergence, 0 to 100 scale (0 no effect, 100 complete control)
Method in brief: as §1

[6] = system: pigweed (Amaranthus retroflexus); assay: Test A preemergence, pigweed; details: Preemergence, 0 to 100 scale (0 no effect, 100 complete control)
Method in brief: as §1

[7] = system: barnyardgrass (Echinochloa crus-galli); assay: Test A postemergence, barnyardgrass; details: postemergence, 0 to 100 scale, 0 is no effect, 100 is complete control, approximately 10 days
Method in brief: as §1

kochia (Kochia scoparia) [8] = assay: Test A postemergence, kochia; details: postemergence, 0 to 100 scale, 0 is no effect, 100 is complete control, approximately 10 days
Method in brief: as §1

[9] = system: ragweed (common ragweed, Ambrosia elatior); assay: Test A postemergence, ragweed; details: postemergence, 0 to 100 scale, 0 is no effect, 100 is complete control, approximately 10 days
Method in brief: as §1

[10] = system: ryegrass, Italian (Italian ryegrass, Lolium multiflorum); assay: Test A postemergence, Italian ryegrass; details: postemergence, 0 to 100 scale, 0 is no effect, 100 is complete control, approximately 10 days
Method in brief: as §1

[11] = system: foxtail, giant (giant foxtail, Setaria faberii); assay: Test A postemergence, giant foxtail; details: postemergence, 0 to 100 scale, 0 is no effect, 100 is complete control, approximately 10 days
Method in brief: as §1

[12] = system: pigweed (Amaranthus retroflexus); assay: Test A postemergence, pigweed; details: postemergence, 0 to 100 scale, 0 is no effect, 100 is complete control, approximately 10 days
Method in brief: as §1

[13] = system: wheat (Triticum aestivum); assay: Test A postemergence, wheat; details: postemergence, 0 to 100 scale, 0 is no effect, 100 is complete control, approximately 10 days
Method in brief: as §1

corn (Zea mays) = assay: Test A postemergence, corn; details: postemergence, 0 to 100 scale, 0 is no effect, 100 is complete control, approximately 10 days
Method in brief: as §1

[14] = system: blackgrass (Alopecurus myosuroides); assay: Test A postemergence, blackgrass; details: postemergence, 0 to 100 scale, 0 is no effect, 100 is complete control, approximately 10 days
Method in brief: as §1

[15] = system: galium (catchweed bedstraw, Galium aparine); assay: Test A postemergence, galium; details: postemergence, 0 to 100 scale, 0 is no effect, 100 is complete control, approximately 10 days
Method in brief: as §1

rice (Oryza sativa) = assay: Test B flooded paddy test, rice; details: 250 g ai/ha, Flood; visual rating after 13 to 15 days; scale 0 to 100, 0 is no effect, 100 is complete control
Method in brief: (§2)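 Plants grown to 2-leaf stage, pots flooded to 3 cm above soil and compound applied directly to paddy water, depth maintained throughout. After 13-15 days in greenhouse, visual rating against untreated controls on 0-100 scale (0 no effect, 100 complete control).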

[16] = system: sedge, umbrella (small-flower umbrella sedge, Cyperus difformis); assay: Test B flooded paddy test, umbrella sedge; details: 250 g ai/ha, Flood; visual rating after 13 to 15 days; scale 0 to 100, 0 is no effect, 100 is complete control
Method in brief: as §2

[17] = system: ducksalad (Heteranthera limosa); assay: Test B flooded paddy test, ducksalad; details: 250 g ai/ha, Flood; visual rating after 13 to 15 days; scale 0 to 100, 0 is no effect, 100 is complete control
Method in brief: as §2

[18] = system: barnyardgrass (Echinochloa crus-galli); assay: Test B flooded paddy test, barnyardgrass; details: 250 g ai/ha, Flood; visual rating after 13 to 15 days; scale 0 to 100, 0 is no effect, 100 is complete control
Method in brief: as §2

SMILES	Plant response rating, Barnyardgrass ([1]; 31 g ai/ha)	Plant response rating, Barnyardgrass ([1]; 125 g ai/ha)	Plant response rating, Kochia (kochia (Kochia scoparia) [2]; 31 g ai/ha)	Plant response rating, Kochia (kochia (Kochia scoparia) [2]; 125 g ai/ha)	Plant response rating, Ragweed ([3]; 31 g ai/ha)	Plant response rating, Ragweed ([3]; 125 g ai/ha)	Plant response rating, Ryegrass, Italian ([4]; 31 g ai/ha)	Plant response rating, Ryegrass, Italian ([4]; 125 g ai/ha)	Plant response rating, Foxtail, Giant ([5]; 31 g ai/ha)	Plant response rating, Foxtail, Giant ([5]; 125 g ai/ha)	Plant response rating, Pigweed ([6]; 31 g ai/ha)	Plant response rating, Pigweed ([6]; 125 g ai/ha)	Plant response rating, Barnyardgrass ([7]; 31 g ai/ha)	Plant response rating, Barnyardgrass ([7]; 125 g ai/ha)	Plant response rating, Kochia (kochia (Kochia scoparia) [8]; 31 g ai/ha)	Plant response rating, Kochia (kochia (Kochia scoparia) [8]; 125 g ai/ha)	Plant response rating, Ragweed ([9]; 31 g ai/ha)	Plant response rating, Ragweed ([9]; 125 g ai/ha)	Plant response rating, Ryegrass, Italian ([10]; 31 g ai/ha)	Plant response rating, Ryegrass, Italian ([10]; 125 g ai/ha)	other results
FC(F)=C(F)CCOc1c(Br)cccc1Oc1ncc(Cl)cn1 [Compound 38]	10	70	0	70	0	0	0	10	30	100	0	100	10	30	20	70	0	10	0	10	Plant response rating, Foxtail, Giant ([11]; 31 g ai/ha): 10; Plant response rating, Foxtail, Giant ([11]; 125 g ai/ha): 40; Plant response rating, Pigweed ([12]; 31 g ai/ha): 40; Plant response rating, Pigweed ([12]; 125 g ai/ha): 80; Plant response rating, Wheat ([13]; 31 g ai/ha): 0; Plant response rating, Wheat ([13]; 125 g ai/ha): 0; Plant response rating, Corn (corn (Zea mays); 31 g ai/ha): 10; Plant response rating, Corn (corn (Zea mays); 125 g ai/ha): 20; Plant response rating, Blackgrass ([14]; 31 g ai/ha): 0; Plant response rating, Blackgrass ([14]; 125 g ai/ha): 10; Plant response rating, Galium ([15]; 31 g ai/ha): 10; Plant response rating, Galium ([15]; 125 g ai/ha): 50; Plant response rating, Rice (rice (Oryza sativa)): 0; Plant response rating, Sedge, Umbrella [16]: 100; Plant response rating, Ducksalad [17]: 75; Plant response rating, Barnyardgrass [18]: 0
FC(F)(F)CCCOc1c(I)cccc1Oc1ncc(Cl)cn1 [Compound 60]	20	80	30	40	0	0	0	90	90	90	70	100	30	100	90	90	0	30	0	70	Plant response rating, Foxtail, Giant ([11]; 31 g ai/ha): 30; Plant response rating, Foxtail, Giant ([11]; 125 g ai/ha): 80; Plant response rating, Pigweed ([12]; 31 g ai/ha): 90; Plant response rating, Pigweed ([12]; 125 g ai/ha): 90; Plant response rating, Wheat ([13]; 31 g ai/ha): 0; Plant response rating, Wheat ([13]; 125 g ai/ha): 20; Plant response rating, Corn (corn (Zea mays); 31 g ai/ha): 30; Plant response rating, Corn (corn (Zea mays); 125 g ai/ha): 30; Plant response rating, Blackgrass ([14]; 31 g ai/ha): 30; Plant response rating, Blackgrass ([14]; 125 g ai/ha): 50; Plant response rating, Galium ([15]; 31 g ai/ha): 70; Plant response rating, Galium ([15]; 125 g ai/ha): 100; Plant response rating, Rice (rice (Oryza sativa)): 25; Plant response rating, Sedge, Umbrella [16]: 95; Plant response rating, Ducksalad [17]: 100; Plant response rating, Barnyardgrass [18]: 20
FC(F)(F)CCCOc1c(Br)cccc1Oc1ncc(Cl)cn1 [Compound 31]	10	60	0	70	0	10	0	40	40	100	70	100	20	70	90	100	0	10	10	50	Plant response rating, Foxtail, Giant ([11]; 31 g ai/ha): 20; Plant response rating, Foxtail, Giant ([11]; 125 g ai/ha): 50; Plant response rating, Pigweed ([12]; 31 g ai/ha): 80; Plant response rating, Pigweed ([12]; 125 g ai/ha): 100; Plant response rating, Wheat ([13]; 31 g ai/ha): 0; Plant response rating, Wheat ([13]; 125 g ai/ha): 10; Plant response rating, Corn (corn (Zea mays); 31 g ai/ha): 10; Plant response rating, Corn (corn (Zea mays); 125 g ai/ha): 20; Plant response rating, Blackgrass ([14]; 31 g ai/ha): 20; Plant response rating, Blackgrass ([14]; 125 g ai/ha): 40; Plant response rating, Galium ([15]; 31 g ai/ha): 40; Plant response rating, Galium ([15]; 125 g ai/ha): 90; Plant response rating, Rice (rice (Oryza sativa)): 25; Plant response rating, Sedge, Umbrella [16]: 100; Plant response rating, Ducksalad [17]: 75; Plant response rating, Barnyardgrass [18]: 25
